Laboratory results published in patent US20130143825A1, “COMPOUNDS FOR USE IN THE TREATMENT OF DISEASES BASED ON THE EXPRESSION OF TOXIC TRANSCRIPTS” (UNIVERSITAT DE VALENCIA, priority 2010, published 2013).
Non-standard residues stand in square brackets, D forms with d. Residues, ends and D or L forms follow the SMILES beside them. No end group written: not given here.

Legend:
[1] = test system: 103Y-Gal4/+;UAS-CTG(480)/+ flies; assay: Lethality phenotype in pupae caused by expression of 480 CTG under 103Y-Gal4 (females born); type: in vivo, Drosophila; design: key: —: - indicates that no females were born, in neither the control tubes and the treated tubes; conditions: females born vs DMSO control
[2] = test system: 103Y-Gal4/+;UAS-CTG(480)/+ flies; assay: as above; type: in vivo, Drosophila; design: key to Treated born/Control born: —: - indicates that no females were born, in neither the control tubes and the treated tubes; conditions: 80 μM; females born vs DMSO control; * p-value <0.05
Procedure: The 120 vials that make up the chemical library were individually assayed on the lethality phenotype in pupae caused by the expression of 480 CTG under the control of 103Y-Gal4 at a concentration of 80 μM. […] Thus, for positions O1, O2, O3, O4, O5 and O6 of the hexapeptide, a total of six, three, six, four, two and seven active amino acids were obtained, respectively (FIG. 2A). In order to perform the deconvolution, 10 of these 28 amino acids were selected, on the basis of their degree of activity in the biological assay (FIG. 2A). Finally, of the possible combinations, 16 sequences were selected to perform the synthesis of the defined hexapeptides (FIG. 2B). The selection of these 16 peptides was based on redundancy criteria between the physical and chemical properties of active amino acids in similar positions.
At 250 μM, the activity of the peptide decreased, possibly due to a toxic effect of the peptide at higher concentrations.
In order to determine the contribution of each of the p10 residues to their activity on CTG(480), an alanine scanning experiment was performed. These experiments are based on substituting every amino acid of the peptide with alanine and keeping the rest. Alanine is a small amino acid and, in general, not very active; this is why it is used for this type of studies. Since each alanine substitution examines the contribution of an individual amino acid, this experiment makes it possible, on the one hand, to evaluate whether p10 is susceptible to optimisation (in the event that a substitution increases the efficacy of the molecule), or to determine which amino acids are important for its function (in the event that a substitution decreases the activity thereof). The sequence of p10 allows for 5 substitutions; for this reason, 5 new hexapeptides were synthesised which were assayed in relation to the lethality phenotype in 103Y-Gal4; UAS-CTG(480)/+ flies and commercial food.

[3] = test system: 2-AP-(CUG)23 RNA; assay: 2-aminopurine fluorescence assay (hairpin opening); type: biochemical; conditions: 100 μM
Procedure: Measurements of the fluorescence emitted (Y-axis), measured as relative fluorescence units (RFU), by 2-aminopurine in a (CUG)23 RNA (1 μM) in the presence of MblZF (0.1 μM, 1 μM, 2 μM and 5 μM) (A) or p10 (0.1 μM, 1 μM, 2 μM, 5 μM and 100 μM) (B), relative to the fluorescence emitted by the free RNA. p10 caused a 2.9-increase in the fluorescence of 2-AP at 100 μM, which indicates a change towards single-stranded. This effect was not observed when incubating the RNA with DMSO, or with the alanine scanning peptides with sequences: ppyawa and payawe (C).
In order to confirm whether said changes cause a loss of the hairpin loop structure, an experiment was performed using an RNA composed of 23 CUG repeats, wherein a guanine had been substituted with its analogue 2-aminopurine (2-AP-(CUG)23). When 2-AP is in a single-stranded environment, it emits fluorescence at 375 nm. […] However, upon increasing the concentration of p10 to 100 μM (RNA:peptide 1:100), the 2AP-(CUG)23 RNA underwent a conformational change, from double-stranded to single-stranded, with a 2.9-fold increase in the fluorescence emission of the molecule (FIG. 28B). In order to confirm the specificity of this effect, the same experiment was performed, incubating the alanine scanning peptides (payawe and ppyawa) with the 2-AP-(CUG)23 RNA at the same concentration as p10 (100 μM).
As may be observed in FIG. 29, in this example we use the 2-aminopurine assay in order to assay 4 peptides (p11, p5, p12 and p15) in addition to p10, obtained from the deconvolution of the combinatorial peptide library explained in this invention. […] The concentration used in all cases is 100 μM.

[4] = test system: FVB wild strain mice; assay: Toxicity of p10 in mammals, intramuscular injection; type: in vivo
Procedure: In order to study the possible toxic effect of p10 in mammals and establishing the maximum tolerable dose for subsequent assays, the peptide was administered to mice from the FVB wild strain. Due to the low absorption of peptides by the intestinal walls, it was decided to perform intramuscular injections in the anterior tibial muscle of animals 4-5 weeks of age, using four different doses (0.5 μg, 1 μg, 10 μg and 100 μg), with a total of 6 mice per dose (3 females and 3 males). 4 weeks after the injection, the animals were sacrificed and a visual autopsy was performed, jointly with a histomorphological study of the muscle and a blood test (FIG. 31). As a control, animals injected with the same quantity of DMSO (0.2% for the 0.5-μg and 1-μg doses, and 2% for the 10-μg and 100-μg doses) were used.
However, the blood tests did show differences between the treated animals and the control. As a marker of renal activity, we measured the quantity of […], urea and creatinine in the blood. The creatine phosphokinase (CPK) enzyme was used as a marker of damage to the skeletal muscle and the heart, and alkaline phosphatase (AP), gamma-glutamyl transpeptidase (GGT) and glutamate pyruvate transaminase (GPT) were used as markers of hepatic damage. […] This could be due to the toxicity of DMSO or to the injection itself. […] Urea is the final result of protein metabolism. It is formed in the liver and eliminated in the urine. If the kidney is not functioning correctly, urea accumulates in the blood. GPT is an enzyme that is present in the liver at a high concentration and, to a lower extent, in the kidneys, the heart and the muscles. When there is an injury in these organs, the enzyme is released into the blood and appears high in tests. Moreover, it is worth noting that two of the mice treated with the 100-μg dose died approximately 11 days after the injection (p/i), which confirms the toxicity of p10 when it exceeds a threshold value. It was possible to extract blood from one of these two animals just before it died.

[5] = test system: GMR-Gal4 UAS-CTG(480) flies; assay: Endogenous expression of p10-derived peptides (Gal4/UAS), rough eye phenotype; type: in vivo, Drosophila
Excerpt: Thus, three different transgenes were designed, with SEQ ID NO: 17-19 (p17-p19), which encoded different peptides, all based on sequence SEQ ID NO: 10 corresponding to p10 (FIG. 9), taking into consideration the codon usage bias in Drosophila (i.e. favouring the use of G, and in particular C, in the synonymous sites; Powell & Moriyama, 1997) and adding an initial Methionine, as well as three spacer Glycines, to sequence SEQ ID NO: 10. Moreover, upstream from the […] initiation codon, 21 nucleotides of the 5′UTR end of the act5C gene of Drosophila which included the Kozak sequence were added, in order to enhance the expression of the transgenes.
p17 contained the direct sequence of the peptide of SEQ ID NO: 10. As discussed above, the peptides in the hexapeptide chemical library are composed of D-amino acids. The D-forms (dextrogyre) of amino acids are stereoisomers of the L-forms (levogyres) and only L-amino acids are synthesised in the cells and incorporated into proteins. Consequently, if the arrangement of the lateral chains of p10 is important for the function thereof, the latter would be lost when p17 is synthesised by Drosophila from L-aa. For this reason, it was decided to generate construct p18, wherein the peptide sequence of SEQ ID NO: 10 was inverted, leading to a retro-inverse peptide (Chorev & Goodman, 1995; P. M. Fischer, 2003). At the time when these transgenes were generated, the smallest constructs described in the literature encoded peptides with more than 20 amino acids, which is more than twice the size of peptides p17 and p18 (which have only ten amino acids). For this reason, construct p19 was generated, which combined the constructs of peptides p17 and p18, leading to a peptide with 19 amino acids. The three constructs were microinjected in the precursors of the germinal line of Drosophila embryos, leading to 10 lines of transgenic flies for each transgene.
The transgenic flies obtained were crossed with the GMR-Gal4 UAS-CTG(480)/CyO and Mhc-Gal4 UAS-CTG(480)/TM6b recombinant fly lines generated during this invention, which directed the expression of the CTG repeats in the eye and the muscle, respectively. As in the case of the sev-Gal4 UAS-CTG(480)/+ flies, the adult GMR-Gal4 UAS-CTG(480)/UAS-GFP flies presented a strong rough eye phenotype. […] However, the opposite phenomenon occurred at 25° C. and at 29° C. […] Given that changes in temperature affect the expression of the CTG(480) transgenes and peptides p17-p19 in a different manner, since the latter are inserted in different regions of the genome, there may be a relation between the quantity of peptide and of repeats that must be reached, whereafter p10 becomes toxic.

[6] = 100-μg dose, one mouse just before it died

Question: Which “Treated born/Control born” value ([1]; 62 μM) does the source give for “p4: defined hexapeptide obtained following deconvolution of the D-amino acid combinatorial library ([dC][dP][dY][dT][dW][dE])” here?
Answer: The value was “—”.

Question: “p16: defined hexapeptide obtained following deconvolution of the D-amino acid combinatorial library ([dP][dQ][dY][dT][dW][dE])” was tested. Which “Treated born/Control born” value ([1]; 38.5 μM) did it give?
Answer: Its value is 0.4.

Question: “p13: defined hexapeptide obtained following deconvolution of the D-amino acid combinatorial library ([dP][dQ][dY][dA][dQ][dE])” was tested. Which “Treated born/Control born” value [2] did it give?
Answer: The value was 0.8.

Question: “p14: defined hexapeptide obtained following deconvolution of the D-amino acid combinatorial library ([dP][dQ][dY][dA][dW][dE])” was tested. Which “Treated born/Control born” value ([1]; 40 μM) did it give?
Answer: Its value is 1.8.

Question: “p9: defined hexapeptide obtained following deconvolution of the D-amino acid combinatorial library ([dP][dP][dY][dA][dQ][dE])” was tested. Which “Treated born/Control born” value [2] did it give?
Answer: Its value is 2.0.

Question: For “p2: defined hexapeptide obtained following deconvolution of the D-amino acid combinatorial library ([dC][dP][dY][dA][dW][dE])”, which “Treated born/Control born” value [2] is on record?
Answer: The value was “—”.

Question: “p11: defined hexapeptide obtained following deconvolution of the D-amino acid combinatorial library ([dP][dP][dY][dT][dQ][dE])” was tested. Which “Treated born/Control born” value [2] did it give?
Answer: Its value is 0.8.

Question: And the “destructuration of CUG23 probe, comparative 2-aminopurine assay” value [3]?
Answer: The value was “significant levels of specificity and efficacy”.

Question: With “p1: defined hexapeptide obtained following deconvolution of the D-amino acid combinatorial library ([dC][dP][dY][dA][dQ][dE])” as the compound, how does the “Treated born/Control born” value [2] read?
Answer: The value was 0.3.

Question: How did the “Treated born/Control born” value [2] turn out when “p12: defined hexapeptide obtained following deconvolution of the D-amino acid combinatorial library ([dP][dP][dY][dT][dW][dE])” was run?
Answer: Its value is 3.0.

Question: What about the “destructuration of CUG23 probe, comparative 2-aminopurine assay” value [3] of the same compound?
Answer: Its value is “significant levels of specificity and efficacy”.

Question: How did the “Treated born/Control born” value [2] turn out when “p3: defined hexapeptide obtained following deconvolution of the D-amino acid combinatorial library ([dC][dP][dY][dT][dQ][dE])” was run?
Answer: Its value is 0.8.

Question: Which “Treated born/Control born” value [2] does the source give for “p7: defined hexapeptide obtained following deconvolution of the D-amino acid combinatorial library ([dC][dQ][dY][dT][dQ][dE])” here?
Answer: The value was 1.4.

Question: `C[C@@H](NC(=O)[C@@H](Cc1ccc(O)cc1)NC(=O)[C@H]1CCCN1C(=O)[C@H]1CCCN1)C(=O)N[C@H](Cc1c[nH]c2ccccc12)C(=O)N[C@H](CCC(=O)O)C(=O)O` [p10] (H-[dP][dP][dY][dA][dW][dE]-OH) was tested. Which “visual autopsy and histological analysis of the muscles vs DMSO controls” value ([4]; 0.5, 1, 10, 100 μg i.m., 4 weeks after injection) did it give?
Answer: The value was “did not reveal significant differences”.

Question: What about the “urea and GPT in the blood vs controls” value ([4]; 10-μg and 100-μg doses i.m.) of the same compound?
Answer: The value was “even higher values of urea and GPT”.

Question: What about the “time of death after the injection” value ([4]; 100-μg dose) of the same compound?
Answer: The value was “approximately 11 days”.

Question: And the mice that died ([4]; 100-μg dose, 6 mice per dose)?
Answer: Its mice that died is “two”.

Question: And the “CPK in blood, times greater than the control with DMSO” value [4, 6]?
Answer: The value was 15 times.

Question: And the “CPK in blood, times greater than the upper limit of the standard values” [4, 6]?
Answer: The value was 28 times.

Question: And the “urea, creatinine, CPK and GGT in the blood” value [4, 6]?
Answer: Its value is “extremely high values”.

Question: With “p17: endogenously expressed ten amino acid peptide: initial Methionine, three spacer Glycines and the direct sequence of p10 (MGGGPPYAWE)” as the compound, how does the “rough eye phenotype on co-expression with CTG(480)” value ([5]; 19° C. and 21° C.) read?
Answer: Its value is “not”.

Question: What about the “transgenic lines assayed that modified the phenotype of GMR-Gal4 UAS-CTG(480) flies” value ([5]; in vivo) of the same compound?
Answer: Its value is “none of the five lines”.
